Measured values from publication PMC10253817, “Design, Pharmacological Characterization, and Molecular Docking of Minimalist Peptidomimetic Antagonists of α4β1 Integrin” (International Journal of Molecular Sciences, 2023).
Each block holds one compound with its values, some of them ahead of it. *1 amine or outer side, *2 acyl side, *3 side chain or, on linkers, in order; H or OH if unused. Where a SMILES comes first, the peptide text is derived from it. [ ]: non-standard residue; d: D form. The star is where a group is joined. X1 = O=C(Cc1ccc(N[*:1])cc1)[*:2]; NH(2-Me-phenyl) = Cc1ccccc1N*; CO = O=C([*:1])[*:2]

Key:
[1] = set-up: method as in PMID 17523052, PMID 11682211; conditions: plasma; heparinized blood; homogenates of rat liver, lungs, and intestines; cited from earlier work
[2] = tested on: antigen-induced airway hyper-responsiveness; set-up: method as in PMID 10934094; conditions: allergic sheep; cited from earlier work
[3] = set-up: method as in PMID 12086484; conditions: cited from earlier work
α4β1 integrin [4] = target: T1, α4β1 integrin (Homo sapiens, UniProt P05556+P13612); assay: α4β1 integrin-mediated Jurkat E6.1 cell adhesion to FN; assay type: cell-based; conditions: Jurkat E6.1 cell adhesion to FN (10 μg/mL); antag. = reduced cell adhesion; mean ± SD
T1 construct: Jurkat E6.1 cell line, which endogenously expresses α4β1 integrin; host or cells: Jurkat E6.1
Experimental: To investigate the ability of the new peptides to modulate integrin-mediated cell adhesion, we employed cell adhesion assays using a Jurkat E6.1 cell line, which endogenously expresses α4β1 integrin and the natural ligand FN. […] On the contrary, ligands able to increase cell adhesion are defined as agonists.
(§1) The assays were performed as previously described. Briefly, regarding adhesion assays on Jurkat E6.1 or HL-60 cells, black 96-well plates (Corning Costar) were coated overnight at 4 °C with FN or Fg (10 μg/mL) or VCAM-1 (2 μg/mL) in order to investigate α4β1 integrin-mediated cell adhesion. To avoid any kind of unspecific binding, plates were incubated with 100 μL/well of blocking solution (1% BSA in HBSS) for 30 min at 37 °C. Cells were counted, stained with the CellTracker green CMFDA (12.5 μM, 30 min at 37 °C, Life Technologies Italia, Milan, Italy) and after three washes, were preincubated with increasing concentrations of new compounds (10^−10–10^−4 M) or with the vehicle (methanol) for 30 min at 37 °C.
(§2) Then, cells were plated (500,000/well) on coated wells and incubated for 30 min at 37 °C. Afterwards nonadherent cells were removed via washing with a blocking solution, and the remaining adhered cells were lysed with 0.5% Triton X-100 in PBS (30 min at 4 °C). Green fluorescence was measured (Ex485 nm/Em535 nm) using an EnSpire Multimode Plate Reader (PerkinElmer, Waltham, MA, USA).
(§3) In both types of adhesion assay, the number of adherent cells was determined via comparison with a standard curve made in the same plate. Experiments were carried out in quadruplicate and repeated at least three times. Data analysis and EC50 or IC50 values were calculated using GraphPad Prism 9.5.1 (GraphPad Software, San Diego, CA, USA).

α4β1 integrin [5] = target: T1, α4β1 integrin; assay: α4β1 integrin-mediated Jurkat cell adhesion to VCAM-1; assay type: cell-based; conditions: Jurkat cell adhesion to VCAM-1 (2 μg/mL); antag. = reduced cell adhesion; mean ± SD
Experimental: (§4) To this purpose, the ability of the best peptidomimetics to modulate cell adhesion mediated by integrins other than α4β1 was evaluated in HL60 cells, mainly expressing the leukocyte integrin αMβ2, and on K562 cells, mainly expressing α5β1, which shares a β1 subunit with the heterodimer α4β1. […] In contrast, 13 was a moderate promoter of cell adhesion mediated by αMβ2 integrin, behaving as an agonist. Regarding α5β1 integrin, none of the peptidomimetics employed were able to modulate K562 cell adhesion, thus being shown to be completely ineffective toward α5β1 integrin. The reference compound DS-70 was ineffective toward both αMβ2 and α5β1 integrins under the same experimental conditions (Table 3).
as §1, §2, §3

α4β1 integrin [6] = target: T1, α4β1 integrin; assay: LDV-FITC competitive binding on intact Jurkat E6.1 cells
Experimental: The assays were performed as previously described with the following modifications. Jurkat E6.1 cells were resuspended (50,000 cells/sample) in 0.1% BSA in a HEPES buffer (NaCl 110 mM; KCl 10 mM; Glucose 10 mM; MgCl2 1 mM; CaCl2 1.5 mM; HEPES 30 mM; pH 7.4) and pre-incubated with different concentrations (10^−11–10^−5 M) of compounds for 20–30 min at RT. Then, LDV-FITC (5 µM) was added to the cells, and they were incubated in the dark for an additional 30 min at RT. At the end of the incubation with LDV-FITC, cells were washed with 0.1% BSA in a HEPES buffer. The FITC fluorescence intensity was measured using an EnSpire Multimode Plate Reader (PerkinElmer, Waltham, MA, USA). The data were plotted as LDV-FITC specific bindings versus the concentration of the competitor, and the data were fitted to a one-site competition equation; the equilibrium dissociation constant Ki was calculated from the IC50 using the Cheng–Prusoff equation.

α5β1 integrin = target: T2, α5β1 integrin (Homo sapiens, UniProt P05556+P08648); assay: α5β1 integrin-mediated K562 cell adhesion to FN; assay type: cell-based; conditions: K562 cell adhesion to FN (10 μg/mL)
T2 construct: K562 cells, mainly expressing α5β1, which shares a β1 subunit with the heterodimer α4β1; host or cells: K562 (PMA-treated)
Experimental: as §4
For adhesion assays mediated by α5β1 integrin, K562 cells were pre-treated with PMA (64.85 nM, Merck Life Science, Milan, Italy) for 48 h to enhance α5β1 integrin expression. 96-well plates were coated via passive adsorption with FN (10 μg/mL) overnight at 4 °C; then, the following day, plates were blocked by adding 100 μL/well of a blocking solution (1% BSA in PBS) and incubated for 1 h at 37 °C. K562 cells were counted and preincubated with various concentrations (10^−10–10^−4 M) of the peptides or with the vehicle for 30 min at RT. Then, K562 cells were plated (50,000 cells/well) and incubated at RT for 1 h. The wells were then washed three times with 1% BSA in PBS, and 50 μL of hexosaminidase substrate was added and incubated at RT for 1 h. After the addition of 100 μL of stopping solution (50 mM glycine and 5 mM EDTA, pH 10.4), plates were read at 405 nm in an EnSpire Multimode Plate Reader.
as §3
Cell culture. Jurkat E6.1 (expressing both α4β1 and αLβ2 integrin), K562 (expressing α5β1 integrin) and HL60 (expressing α Mβ2 integrin) cell lines were purchased from ATCC (Rockville, MD, USA); these cells were routinely cultured in RPMI-1640 (Life Technologies) supplemented with 1% glutamine and 10% fetal bovine serum (FBS). Cells were grown at 37 °C under 5% CO 2 humidified atmosphere. 40 h before the adhesion assays, K562 and HL60 cells were treated with 25 nM or 40 nM phorbol 12 -myristate 13-acetate (PMA; Sigma-Aldrich), respectively, to induced cell differentiation and to increased α5β1 or αMβ2 integrin expression on cell surface (Baiula et al., 2016).
Cell adhesion assays . Concentration-response curves, obtained from cell adhesion assays performed in […]
Figure S1. […]

[7] = set-up: method as in PMID 30051467, PMID 33584300; conditions: cited from earlier work
αMβ2 integrin = target: T3, αMβ2 integrin (Homo sapiens, UniProt P05107+P11215); assay: αMβ2 integrin-mediated HL60 cell adhesion to Fg; assay type: cell-based; conditions: HL60 cell adhesion to Fg (10 μg/mL); antagonists; mean ± SD
T3 construct: HL60 cells, mainly expressing the leukocyte integrin αMβ2; host or cells: HL60 (PMA-treated)
Experimental: as §4, §1, §2, §3
Cell culture. Jurkat E6.1 (expressing both α4β1 and αLβ2 integrin), K562 (expressing α5β1 integrin) and HL60 (expressing α Mβ2 integrin) cell lines were purchased from ATCC (Rockville, MD, USA); these cells were routinely cultured in RPMI-1640 (Life Technologies) supplemented with 1% glutamine and 10% fetal bovine serum (FBS). Cells were grown at 37 °C under 5% CO 2 humidified atmosphere. […]

α4β1 integrin [8] = target: T1, α4β1 integrin; assay: HUTS-21 monoclonal antibody binding (α4β1 integrin conformation), flow cytometry; assay type: cell-based; conditions: Jurkat E6.1 cells; compounds 1–100 nM; FN 10 µg/mL; versus vehicle
From the text: Integrin functions are regulated by a number of conformational changes in the protein itself. […] Conformational changes can be evaluated by using conformationally sensitive antibodies which specifically recognize epitopes exposed only in a defined structural conformation. To better depict peptidomimetics–α4β1 integrin interactions, we employed PE-conjugated HUTS-21 mAb that recognizes an epitope mapped to the hybrid domain of the β1 subunit.
Conversely, antagonists 3, 8, and 13, although binding to α4β1 integrin as previously shown, were not able to induce any conformational rearrangement, showing very low binding of HUTS-21 mAb.
Flow cytometry analysis was performed as previously described, with the following modifications. Jurkat E6.1 cells were resuspended in 1% BSA in HBSS (50,000 cells/sample); then, FN (10 μg/mL) and two concentrations of the best peptidomimetics (100–1 nM) were added to the cells for 30 min. Thereafter, phycoerythrin (PE)-conjugated, conformational-sensitive HUTS-21 mAb (PE mouse anti-human CD29 antibody, Becton Dickinson Italia, Milan, Italy) (20 μL/sample) was added for 45 min at room temperature; after two washes, Jurkat E6.1 cells were suspended in PBS, and 10,000 cells/sample were acquired in a Guava®EasyCyte Flow Cytometer. The data are presented as the mean fluorescence intensity (MFI). Data were normalized with the relative fluorescence for nonspecific binding evaluated by exposing the cells to an isotype control mAb set to 0.

T1 sequence (P13612 34-1032): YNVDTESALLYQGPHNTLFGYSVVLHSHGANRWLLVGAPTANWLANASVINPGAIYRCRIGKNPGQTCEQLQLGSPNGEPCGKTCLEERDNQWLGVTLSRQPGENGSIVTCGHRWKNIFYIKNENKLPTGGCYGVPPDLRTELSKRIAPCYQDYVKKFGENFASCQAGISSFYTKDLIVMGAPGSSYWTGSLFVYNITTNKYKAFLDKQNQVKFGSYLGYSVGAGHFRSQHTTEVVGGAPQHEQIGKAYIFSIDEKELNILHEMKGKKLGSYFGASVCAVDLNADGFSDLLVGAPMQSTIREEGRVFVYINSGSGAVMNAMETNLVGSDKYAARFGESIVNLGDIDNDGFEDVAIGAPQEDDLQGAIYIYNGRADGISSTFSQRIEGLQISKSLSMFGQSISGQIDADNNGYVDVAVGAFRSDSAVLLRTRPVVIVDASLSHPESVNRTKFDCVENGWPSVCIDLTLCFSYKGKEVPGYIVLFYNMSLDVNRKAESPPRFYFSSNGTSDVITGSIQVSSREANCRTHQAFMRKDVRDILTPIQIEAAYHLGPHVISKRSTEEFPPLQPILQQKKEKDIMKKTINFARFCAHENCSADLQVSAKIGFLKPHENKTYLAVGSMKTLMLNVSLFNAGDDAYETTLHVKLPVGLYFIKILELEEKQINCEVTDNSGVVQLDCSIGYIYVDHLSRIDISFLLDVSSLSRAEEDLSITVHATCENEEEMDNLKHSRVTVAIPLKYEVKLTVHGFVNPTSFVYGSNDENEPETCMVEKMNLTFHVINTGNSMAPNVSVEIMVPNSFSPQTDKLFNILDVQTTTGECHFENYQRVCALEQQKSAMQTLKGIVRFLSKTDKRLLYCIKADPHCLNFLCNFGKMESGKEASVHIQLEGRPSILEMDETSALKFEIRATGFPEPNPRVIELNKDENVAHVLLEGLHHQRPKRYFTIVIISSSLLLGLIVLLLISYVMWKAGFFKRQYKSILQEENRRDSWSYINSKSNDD
T1 sequence (P05556 21-798): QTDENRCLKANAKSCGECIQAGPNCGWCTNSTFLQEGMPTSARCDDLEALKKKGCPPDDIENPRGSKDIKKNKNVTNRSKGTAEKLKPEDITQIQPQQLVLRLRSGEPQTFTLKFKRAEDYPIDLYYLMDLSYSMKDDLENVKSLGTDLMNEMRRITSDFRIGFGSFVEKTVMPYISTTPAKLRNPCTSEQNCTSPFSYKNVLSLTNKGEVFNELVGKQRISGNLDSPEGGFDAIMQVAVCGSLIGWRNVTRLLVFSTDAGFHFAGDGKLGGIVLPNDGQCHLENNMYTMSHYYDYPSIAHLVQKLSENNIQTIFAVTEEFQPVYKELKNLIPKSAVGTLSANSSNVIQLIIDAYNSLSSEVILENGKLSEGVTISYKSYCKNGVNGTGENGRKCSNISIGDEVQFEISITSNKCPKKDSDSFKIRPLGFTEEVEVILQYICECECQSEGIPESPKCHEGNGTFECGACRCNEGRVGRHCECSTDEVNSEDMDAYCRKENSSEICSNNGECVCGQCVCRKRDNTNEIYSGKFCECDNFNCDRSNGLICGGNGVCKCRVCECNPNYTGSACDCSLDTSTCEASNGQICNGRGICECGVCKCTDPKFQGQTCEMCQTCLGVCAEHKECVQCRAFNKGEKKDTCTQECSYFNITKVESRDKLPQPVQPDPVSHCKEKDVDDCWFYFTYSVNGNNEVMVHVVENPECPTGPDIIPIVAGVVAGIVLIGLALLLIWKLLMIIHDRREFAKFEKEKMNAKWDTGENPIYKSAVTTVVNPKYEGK
T3 sequence (P05107 23-769, other chains not shown): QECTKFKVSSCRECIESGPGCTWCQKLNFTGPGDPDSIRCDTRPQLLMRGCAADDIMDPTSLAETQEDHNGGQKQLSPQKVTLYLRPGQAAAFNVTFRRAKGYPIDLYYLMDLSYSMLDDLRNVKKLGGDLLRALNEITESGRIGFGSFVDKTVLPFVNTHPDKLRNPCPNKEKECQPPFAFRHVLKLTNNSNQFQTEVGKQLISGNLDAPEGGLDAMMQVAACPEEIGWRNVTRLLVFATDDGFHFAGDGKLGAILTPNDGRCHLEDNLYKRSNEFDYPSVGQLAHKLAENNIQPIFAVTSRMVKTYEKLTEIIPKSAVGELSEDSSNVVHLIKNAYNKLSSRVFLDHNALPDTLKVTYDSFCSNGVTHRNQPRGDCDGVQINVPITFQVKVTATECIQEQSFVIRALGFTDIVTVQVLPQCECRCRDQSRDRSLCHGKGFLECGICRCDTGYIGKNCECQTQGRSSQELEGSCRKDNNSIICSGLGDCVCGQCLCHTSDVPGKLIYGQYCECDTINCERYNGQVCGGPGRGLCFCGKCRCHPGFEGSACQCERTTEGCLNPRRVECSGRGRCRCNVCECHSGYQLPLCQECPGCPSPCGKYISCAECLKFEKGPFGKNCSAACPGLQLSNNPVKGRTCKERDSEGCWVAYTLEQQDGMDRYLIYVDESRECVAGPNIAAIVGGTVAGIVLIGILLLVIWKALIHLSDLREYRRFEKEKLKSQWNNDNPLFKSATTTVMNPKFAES
T2 sequence (P08648 42-894 limits assumed): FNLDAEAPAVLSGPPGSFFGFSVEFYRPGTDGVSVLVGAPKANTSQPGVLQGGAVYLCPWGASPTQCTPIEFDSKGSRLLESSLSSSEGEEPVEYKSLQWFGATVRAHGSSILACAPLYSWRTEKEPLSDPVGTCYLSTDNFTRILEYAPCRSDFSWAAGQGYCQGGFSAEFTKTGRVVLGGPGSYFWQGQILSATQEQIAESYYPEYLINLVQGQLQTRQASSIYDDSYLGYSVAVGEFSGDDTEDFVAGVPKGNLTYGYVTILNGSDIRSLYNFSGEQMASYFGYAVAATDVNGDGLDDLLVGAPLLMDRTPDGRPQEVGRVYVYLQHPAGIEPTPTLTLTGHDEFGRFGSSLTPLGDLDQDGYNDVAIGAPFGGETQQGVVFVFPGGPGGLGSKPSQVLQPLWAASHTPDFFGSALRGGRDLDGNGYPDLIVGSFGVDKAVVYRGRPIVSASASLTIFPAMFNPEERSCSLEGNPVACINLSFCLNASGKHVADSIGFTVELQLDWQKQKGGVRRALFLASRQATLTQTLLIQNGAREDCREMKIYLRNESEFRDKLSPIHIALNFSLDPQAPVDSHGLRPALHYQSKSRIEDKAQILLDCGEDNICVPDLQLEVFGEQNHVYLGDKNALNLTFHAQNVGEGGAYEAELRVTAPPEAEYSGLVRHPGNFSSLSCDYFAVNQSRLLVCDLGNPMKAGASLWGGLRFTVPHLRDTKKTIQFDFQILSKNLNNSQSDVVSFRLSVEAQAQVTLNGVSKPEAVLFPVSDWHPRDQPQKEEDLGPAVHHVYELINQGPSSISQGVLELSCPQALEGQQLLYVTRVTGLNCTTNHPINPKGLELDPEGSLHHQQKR
T2 sequence (P08648 895-1049 partner limits assumed): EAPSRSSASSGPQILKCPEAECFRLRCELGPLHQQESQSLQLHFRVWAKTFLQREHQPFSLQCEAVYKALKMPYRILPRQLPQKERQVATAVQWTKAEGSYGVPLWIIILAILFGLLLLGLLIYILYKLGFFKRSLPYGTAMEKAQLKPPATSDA
T2 sequence (P05556 21-798): as the sequence (P05556 21-798) above

Compound: Cc1ccccc1NC(=O)Nc1ccc(CC(=O)N[C@@H](CC(C)C)C(=O)N[C@@H](CC(=O)O)C(=O)N[C@H](C(=O)N2CCC[C@H]2C(=O)O)C(C)C)cc1 [BIO1211, MPUPA-Leu-Asp-Val-ProOH] ({NH(2-Me-phenyl)-CO}-[X1]LDVP-OH)
stability in a biological environment [1]: scarcely stable
antigen-induced airway hyper-responsiveness [2]: capable of inhibiting
clearance in vivo [3]: rapid clearance

Compound: Cc1ccccc1NC(=O)Nc1ccc(CC(=O)NC[C@H](C)C(=O)NCC(=O)O)cc1 [compound 1]
receptor affinity (in words) (α4β1 integrin [6]; α4β1 integrin): complete lack of receptor affinity

Compound: Cc1ccccc1NC(=O)Nc1ccc(CNC(=O)[C@H](C)CNC(=O)CC(=O)O)cc1 [compound 9]
IC50 (α4β1 integrin [4]): > 5 µM

Compound: Cc1ccccc1NC(=O)Nc1ccc(CNC(=O)[C@@H](C)CNC(=O)CC(=O)O)cc1 [compound 10]
IC50 (α4β1 integrin [4]): > 5 µM

Compound: CC(=O)N[C@@H](CNC(=O)CC(=O)O)C(=O)NCc1ccc(NC(=O)Nc2ccccc2C)cc1 [compound 11]
IC50 (α4β1 integrin [4]): > 5 µM

Compound: CC(=O)N[C@H](CNC(=O)CC(=O)O)C(=O)NCc1ccc(NC(=O)Nc2ccccc2C)cc1 [compound 12]
IC50 (α4β1 integrin [4]): > 5 µM

Compound: Cc1ccccc1NC(=O)Nc1ccc(CNC(=O)C[C@H](C)NC(=O)CC(=O)O)cc1 [compound 14]
IC50 (α4β1 integrin [4]): > 5 µM

Compound: CCCNC(=O)[C@H](CC(=O)NCc1ccc(NC(=O)Nc2ccccc2C)cc1)NC(=O)CC(=O)O [compound 15]
IC50 (α4β1 integrin [4]): > 5 µM

Compound: CCCNC(=O)[C@@H](CC(=O)NCc1ccc(NC(=O)Nc2ccccc2C)cc1)NC(=O)CC(=O)O [compound 16]
IC50 (α4β1 integrin [4]): > 5 µM

Compound: fibronectin [FN]
binding of HUTS-21 mAb (MFI) (α4β1 integrin [8]): increased binding of the HUTS-21 mAb

The next lines start with results.

IC50 (α4β1 integrin [4]): 0.051 µM
Compound: Cc1ccccc1NC(=O)Nc1ccc(CNC(=O)[C@H]2CCN(C(=O)CC(=O)O)C2)cc1 [DS-23, reference compound]

IC50 (α4β1 integrin [5]): 0.00504 µM
Ki (α4β1 integrin [6]; intact Jurkat E6.1 cells vs. LDV-FITC, mean ± SD): 0.00094 ± 0.00032 µM
IC50 (α5β1 integrin): > 5 µM
IC50 (α4β1 integrin [4]): 0.0043 µM
IC50 (αMβ2 integrin): > 5 µM
Compound: Cc1ccccc1NC(=O)Nc1ccc(CC(=O)N2CC[C@H](C(=O)NCC(=O)O)C2)cc1 [DS-70, MPUPA-β^2Pro-Gly, reference compound]
stability in mouse serum [7]: noteworthy stability
